Source: patent US5049506A, “Proline-containing decapeptides as substrates for factor XIII” (Behringwerke Aktiengesellschaft, priority 1987, dated 1991)
Non-standard residues stand in square brackets, D forms with d. Residues, ends and D or L forms follow the SMILES beside them. Hyp = O=C(O)[C@@H]1C[C@@H](O)CN1

Molecular target: T1, factor XIII (Homo sapiens, UniProt P00488)
T1 sequence (P00488 39-732 limits assumed): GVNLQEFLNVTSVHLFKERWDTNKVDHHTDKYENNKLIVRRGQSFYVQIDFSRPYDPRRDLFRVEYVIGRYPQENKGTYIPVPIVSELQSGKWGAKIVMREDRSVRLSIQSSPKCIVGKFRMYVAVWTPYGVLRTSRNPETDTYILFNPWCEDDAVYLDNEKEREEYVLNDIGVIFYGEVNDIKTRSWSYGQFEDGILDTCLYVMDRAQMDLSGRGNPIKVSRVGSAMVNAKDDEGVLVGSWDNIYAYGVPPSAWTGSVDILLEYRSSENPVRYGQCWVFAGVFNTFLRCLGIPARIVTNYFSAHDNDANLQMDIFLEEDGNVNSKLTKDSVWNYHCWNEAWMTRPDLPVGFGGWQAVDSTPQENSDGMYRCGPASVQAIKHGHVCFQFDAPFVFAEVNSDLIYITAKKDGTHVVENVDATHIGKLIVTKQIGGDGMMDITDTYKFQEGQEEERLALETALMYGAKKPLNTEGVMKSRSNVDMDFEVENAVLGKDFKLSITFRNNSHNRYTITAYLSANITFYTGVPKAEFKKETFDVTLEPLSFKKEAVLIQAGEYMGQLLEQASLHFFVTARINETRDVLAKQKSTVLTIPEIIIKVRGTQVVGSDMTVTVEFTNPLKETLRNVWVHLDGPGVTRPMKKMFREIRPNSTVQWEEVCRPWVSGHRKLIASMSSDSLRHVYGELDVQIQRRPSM
Experiment: Determination of factor XIII activity by photometric measurement (peptide as substrate, NADH/GLDH-coupled ammonia detection)
Type: biochemical
Details: decrease in extinction at 340 nm; factor XIII 0.6 U activated with thrombin at 37° C. for 10 min; 100 μl decapeptide amide solution (10 mg/ml in H2O); glycine ethyl ester
Experimental: To test the peptides for their suitability as substrates for the transglutaminase F XIII, a sample solution which contains factor XIII is activated in a buffer mixture which contains about 30mmol/1 calcium chloride at pH 7.6±0.5 with thrombin. The peptide solutions, a solution of an amine derivative, for example glycine ethyl ester or glycine methyl ester, ketoglutarate buffer, glutamic dehydrogenase and an NADH solution are then added. The liberation of ammonia from the decapeptide amide is then measured by means of the decrease in extinction at 340±15nm, and the activity of F XIII is determined.
50 μl of a solution containing factor XIII (0.6 U), which had been adjusted to pH 7.6 and which contained 50 millimolar HEPES, 150 milli molar sodium chloride and 30 millimolar CaC12, were incubated with 25 μl of thrombin solution (30 units dissolved in 1 ml physiological saline) in a 1 ml cuvette at 37° C. for 10 min. 700 μl of a buffer solution composed of triethanolamine pH 8.0, 2.2 g of alpha-ketoglutarate/liter and 133 mg of NADH/liter were added. The sample solution was then mixed with 25 μl of a solution of […] of glutamic dehydrogenase (about 120 units/mg), 100 ml of glycerol, pH 7, 100 μl of glycine ethyl ester (30 mg/ml in H2 O) and 100 μl of decapeptide amide solution (10 mg/ml in H2 O). The decrease in extinction was measured. The results of the kinetic measurement at 340 nm are to be found in the form of delta OD/min values in the following Tables.

Delta OD/min [OD/min]	Structure (SMILES)
0.35	CC[C@H](C)[C@H](NC(=O)[C@@H](NC(=O)[C@H](CCCCN)NC(=O)[C@H](CO)NC(=O)[C@H](CCC(N)=O)NC(=O)CNC(=O)[C@@H]1CCCN1C(=O)CNC(=O)[C@@H](N)CC(C)C)C(C)C)C(=O)NCC(N)=O [Leu--Gly--Pro--Gly--Gln--Ser--Lys--Val--Ile--Gly--NH2] (H-LGPGQSKVIG-NH2)
0.32	CC(C)C[C@H](NC(=O)[C@@H](NC(=O)[C@H](CCCCN)NC(=O)[C@H](CO)NC(=O)[C@H](CCC(N)=O)NC(=O)CNC(=O)[C@@H]1CCCN1C(=O)CNC(=O)[C@@H](N)CC(C)C)C(C)C)C(=O)NCC(N)=O [Leu--Gly--Pro--Gly--Gln--Ser--Lys--Val--Leu--Gly--NH2] (H-LGPGQSKVLG-NH2)
0.27	CC(C)C[C@H](NC(=O)[C@@H](NC(=O)[C@H](CCCCN)NC(=O)[C@H](CO)NC(=O)[C@H](CCC(N)=O)NC(=O)CNC(=O)[C@@H]1C[C@@H](O)CN1C(=O)CNC(=O)[C@@H](N)CC(C)C)C(C)C)C(=O)NCC(N)=O [Leu--Gly--Hyp--Gly--Gln--Ser--Lys--Val--Leu--Gly--NH2] (H-LG[Hyp]GQSKVLG-NH2)
